This passage reports IC50, EC50 and CC50 results from patent publication US11591334B2, “Substituted pyrrolizines for the treatment of hepatitis B” (SHANGHAI LONGWOOD BIOPHARMACEUTICALS CO., LTD., priority 2017, dated 2023).

One data set concerns the target T1, C150 protein (Hepatitis B virus genotype D subtype adw, UniProt P03147, C107A/C48A/C61A/R150C).
T1 construct: purchased WuXi Apptec Co., Ltd
Briefly: In vitro anti-HBV nucleocapsid assembly activity test (Experiment 1, protein experiment). In kind it is biochemical. How it is done:
Experiment 1: In Vitro Anti-HBV Nucleocapsid Assembly Activity Test
Main Reagents and Raw Materials:
C150 protein was expressed and purified by WuXi Apptec Co., Ltd.
BoDIPY® FL was purchased from Thermo Fisher Scientific.
Protein Fluorescent Label:
150 μL of 2% w/v skimmed milk was added into each well of 96-well plate, and incubated at room temperature for 2 hours. The skimmed milk was aspirated. The plate was washed with deionized water and dried, and stored at room temperature. C150 protein (3 mg per tube) was desalted with 5 ml Hitrap desalting column. The desalted C150 protein of each tube was added with 50 mM BoDIPY® FL Fluorescent Dye (20 μl), and incubated under 4° C. overnight in the dark after well mixed. Sephadex G-25 gel was used for filtration to remove fluorescent dyes that were not bounded onto C150. The C150 fluorescent labeling efficiency was calculated according to the following equation: [BoDIPY®FL]=A504/78,000 M^−1; [C150Bo]=(A280−[BoDIPY®FL]×1300 M^−1)/60,900 M^−1; Fluorescent Labeling Efficiency=[BoDIPY®FL]/[C150Bo];
The mother liquor of compound was diluted with DMSO to 6 mM, then diluted to 600 μM with 50 mM HEPES, and then further 3-fold diluted with 10 DMSO/50 mM HEPES to 8 concentrations.
C150Bo was diluted to 2 μM with 50 mM HEPES. 37.5 μL of C150Bo and 2.5 μL of compound at each concentration were added into a 96 well plate and well mixed, then incubated at room temperature for 15 minutes. 10 μl of 750 mM NaCl/50 mM HEPES were added into the each reaction well, and the final concentration of NaCl was 150 mM.
Into the control wells in the 0% protein group 10 μL of 50 mM HEPES was added, and the final concentration of NaCl was 0 mM.
Into the control wells in the 100% protein group 10 μL of 5 M/50 mM HEPES was added, and the final concentration of NaCl was 1 M.
The final concentration of DMSO was 0.5%, the maximum final concentration of the compound was 30 μM, and final concentration of C150Bo was 1.5 μM. The mixture was incubated at room temperature for 1 hour. Fluorescence signal was measured (excitation light was 485 nm; emission light was 535 nm).
Data Analysis % protein assembly=[1−(Sample fluorescence value−1 M NaCl fluorescence value)/(0 M NaCl fluorescence value−1 M NaCl fluorescence value)]×100.
IC50 value was calculated by prism software, and the equation was as follows: Y=Bottom+(Top−Bottom)/(1+10^((LogIC50−X)HillSlope));

The next data set concerns HBV. Briefly: Determination of anti-HBV activity in HepG2.2.15 cell (Experiment 2, HBV DNA in supernatant by qPCR). It is filed as cell-based. Particulars: Hepatitis B virus. The procedure:
Experiment 2: Determination of Anti-HBV Activity in HepG2.2.15 Cell
Compound dilution. All the compounds for in vitro anti-HBV activity assay and cytotoxicity assay were 3-fold diluted into 8 concentrations. The final concentration of the tested compound was 30 μM, the final starting concentration of reference compound GLS4 was 1 μM, and the final concentration of DMSO was 0.5%.
HepG2.2.15 cell (4×10^4 cell/well) was inoculated into 96 well plate, and cultured overnight in 37° C., 5% CO2. On the second day, fresh culture medium containing different concentrations of the compound was added into the culture wells. On the fifth day, the old culture solution in the culture well was aspirated and fresh culture medium containing different concentrations of the compound was added.
On the eighth day, the supernatant in the culture well was collected for extraction of HBV DNA, and the content of DNA in the supernatant of HepG2.2.15 HBV was detected by qPCR. After the supernatant was collected, the medium and Cell-titer Glo reagent were added into the culture well, and the chemiluminescence value of each well was measured by microplate reader.
The activity calculation formula was as follows: Y=Bottom+(Top−Bottom)/(1+10^((LogIC50−X)*Hillslope));

The nature of data set [1]: Determination of cytotoxicity (Experiment 3, resazurin assay). In kind it is cell-based. Particulars: human. How it is done: Compound dilution. All the compounds for in vitro anti-HBV activity assay and cytotoxicity assay were 3-fold diluted into 8 concentrations. The final concentration of the tested compound was 30 μM, the final starting concentration of reference compound GLS4 was 1 μM, and the final concentration of DMSO was 0.5%. Experiment 3: Determination of Cytotoxicity The cytotoxicity of the test compound was tested using HepG2 cells. The cells were incubated for 4 days in the presence of the test compound. Cell activity was assessed using the resazurin assay.

Setting [2] is: HepG2.2.15, read-out: Experiment 2 Cell experiment EC50 (nM).
Where [3] appears, read: fluorescently labeled C150 (C150Bo) 1.5 μM, 150 mM NaCl, 1 hour at room temperature, read-out: Experiment 1 Protein experiment IC50.
Setting [4] is: HepG2.2.15 cells, HBV DNA in supernatant on the eighth day, qPCR, read-out: Experiment 2 Cell experiment EC50.
Setting [5] is: HepG2 cells, incubated for 4 days, resazurin assay, read-out: Experiment 3 Cytotoxicity CC50.

Like-named read-outs stand apart in the source and are kept apart here.

T1 sequence (P03147 1-150 C48A/C61A/C107A/R150C): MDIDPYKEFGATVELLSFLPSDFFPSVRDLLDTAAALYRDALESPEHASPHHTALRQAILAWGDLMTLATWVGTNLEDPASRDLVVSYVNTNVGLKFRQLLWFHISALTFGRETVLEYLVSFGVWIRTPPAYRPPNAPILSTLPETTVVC

On to `O=C(Nc1ccc(F)c(F)c1)c1c(Cl)c(S(=O)(=O)N2C3CCC2CC(O)(c2cc(-c4ccccc4)on2)C3)c2n1CC=C2` (stereo not drawn) [Compound 10ww], for which, at C150 protein, the IC50 lay in the range of 1 to 100 µM. For the same compound, in the data set with HBV (setting [2]), the EC50 fell in the range of 0.1 to 100 nM. The CC50 at 4 days in data set [1] is more than 30 µM.

On C150 protein, `Cc1c(S(=O)(=O)N2C3CCC2CC(O)(CO)C3)c2n(c1C(=O)Nc1cc(F)nc(C#N)c1)CC=C2` (stereo not drawn) [Compound 10vv] came in with an IC50 of 1 to 100 µM. For the same compound, the EC50 in the data set on HBV (setting [2]) lay within 0.1 to 100 nM. Further, in data set [1], the CC50 at 4 days is more than 30 µM.

Turning to `CC(NS(=O)(=O)c1c(Cl)c(C(=O)Nc2cc(F)nc(C#N)c2)n2c1CCCC2)C(F)(F)F` (stereo not drawn) [Compound 40d], the IC50 on C150 protein (setting [3]) was in the range of 1 to 100 µM. Moreover, in the data set on HBV (setting [4]), the EC50 was in the range of 0.1 to 100 nM. Also, the CC50 at 4 days in data set [1] (setting [5]) was more than 30 µM.

Take `Cc1c(NS(=O)(=O)NC2(C)COC2)c2n(c1C(=O)Nc1cc(F)nc(C#N)c1)CCC2` [Compound 90h]: on C150 protein (setting [3]), the IC50 is 1 to 100 µM. In the data set with HBV (setting [4]), the EC50 was in the range of 0.1 to 100 nM. Moreover, the CC50 at 4 days in data set [1] (setting [5]) was more than 30 µM.

`O=C(Nc1ccc(F)c(F)c1)c1c(Cl)c(S(=O)(=O)NC2C3CCC2CC(O)(c2cc(-c4ccccc4)on2)C3)c2n1CC=C2` (stereo not drawn) [Compound 10oo]: the half-inhibitory concentration (IC50) at C150 protein (setting [3]) was in the range of 1 to 100 µM. In addition, in the data set on HBV (setting [4]), the EC50 lay in the range of 100 to 1000 nM. Besides, the CC50 at 4 days in data set [1] (setting [5]) is more than 30 µM.

On to `Cc1c(S(=O)(=O)NC2C3CCC2CC(O)(CO)C3)c2n(c1C(=O)Nc1ccc(F)c(F)c1)CCC=C2` (stereo not drawn) [Compound 30r], for which the IC50 at C150 protein (setting [3]) was 1 to 100 µM. The EC50 with HBV (setting [4]) was 0.1 to 100 nM. The CC50 at 4 days in data set [1] (setting [5]) was more than 30 µM.

`Cc1c(S(=O)(=O)NC(C)CO)c2n(c1C(=O)Nc1ccnc(C(F)F)c1)CCC2` (stereo not drawn) [Compound 20ii]: the IC50 at C150 protein (setting [3]) is 1 to 100 µM. Further, the EC50 in the data set with HBV (setting [4]) was 100 to 1000 nM. Moreover, the CC50 at 4 days in data set [1] (setting [5]) was more than 30 µM.

In the case of `Cc1c(S(=O)(=O)NC(C)C(F)(F)F)c2n(c1C(=O)Nc1ccc(F)c(F)c1)CC=C2` (stereo not drawn) [Compound 10g], the IC50 on C150 protein (setting [3]) was in the range of 1 to 100 µM. In addition, the EC50 in the data set on HBV (setting [4]) lay within 0.1 to 100 nM. The CC50 at 4 days in data set [1] (setting [5]) was more than 30 µM.

With `C[C@@H](NS(=O)(=O)c1c(Cl)c(C(=O)Nc2ccc(F)c(C#N)c2)n2c1C=CC2)C(F)(F)F` [Compound 10c], the IC50 against C150 protein was in the range of 1 to 100 µM. Moreover, in the data set with HBV (setting [4]), the EC50 was 0.1 to 100 nM. Moreover, the CC50 at 4 days in data set [1] (setting [5]) is more than 30 µM.

Take `C[C@@H](NS(=O)(=O)c1c(Cl)c(C(=O)Nc2ccnc(Cl)c2)n2c1CCCC2)C(F)(F)F` [Compound 40c]: on C150 protein, the IC50 is 1 to 100 µM. The half-maximal effective concentration (EC50) with HBV (setting [4]) was 0.1 to 100 nM. For the same compound, the CC50 at 4 days in data set [1] (setting [5]) is more than 30 µM.

`C[C@@H](NS(=O)(=O)c1c(Cl)c(C(=O)Nc2ccc(F)c(C#N)c2)n2c1C=CCCC2)C(F)(F)F` [Compound 50b] yielded an IC50 at C150 protein of more than 100 µM. The EC50 in the data set with HBV (setting [4]) lay within 0.1 to 100 nM. The CC50 at 4 days in data set [1] (setting [5]) was more than 30 µM.

Take `Cc1c(NS(=O)(=O)NC2(C)COC2)c2n(c1C(=O)Nc1ccc(F)c(F)c1)CCC2` [Compound 90g]: the IC50 at C150 protein (setting [3]) is 1 to 100 µM. In addition, the EC50 with HBV (setting [4]) fell in the range of 0.1 to 100 nM. In addition, the CC50 at 4 days in data set [1] (setting [5]) was more than 30 µM.

Take `CC(CO)NS(=O)(=O)Nc1c(Cl)c(C(=O)Nc2cc(F)nc(C#N)c2)n2c1CCC2` (stereo not drawn) [Compound 90f]: the IC50 on C150 protein (setting [3]) was in the range of 1 to 100 µM. The EC50 with HBV (setting [4]) lay within 0.1 to 100 nM. In data set [1] (setting [5]), the CC50 at 4 days was more than 30 µM.

On to `CC(NS(=O)(=O)c1c(Cl)c(C(=O)Nc2ccc(F)c(F)c2)n2c1CCC2)C(F)(F)F` (stereo not drawn) [Compound 20a], for which, at C150 protein (setting [3]), the IC50 was in the range of 1 to 100 µM. Also, in the data set with HBV (setting [4]), the EC50 was 0.1 to 100 nM. For the same compound, the CC50 at 4 days in data set [1] (setting [5]) is more than 30 µM.

Regarding `Cc1c(S(=O)(=O)NC2(C)COC2)c2n(c1C(=O)Nc1ccnc(C(F)F)c1)CC=C2` [Compound 10aa], on C150 protein (setting [3]), the IC50 fell in the range of 1 to 100 µM. Also, in the data set on HBV (setting [4]), the EC50 lay in the range of 100 to 1000 nM. In data set [1] (setting [5]), the CC50 at 4 days was more than 30 µM.

With `CC(NC(=O)Nc1c(Cl)c(C(=O)Nc2ccnc(Cl)c2)n2c1CCCCC2)C(F)(F)F` (stereo not drawn) [Compound 100q], the IC50 at C150 protein (setting [3]) was 1 to 100 µM. The EC50 in the data set with HBV (setting [4]) lay in the range of 0.1 to 100 nM. For the same compound, the CC50 at 4 days in data set [1] (setting [5]) is more than 30 µM.

For `O=C(Nc1ccc(F)c(F)c1)c1c(Cl)c(S(=O)(=O)NC2C3CCC2CC(O)(CO)C3)c2n1CCC2` (stereo not drawn) [Compound 20kk], at C150 protein (setting [3]), the IC50 lay in the range of 1 to 100 µM. Also, the EC50 with HBV (setting [4]) lay in the range of 0.1 to 100 nM. Moreover, in data set [1] (setting [5]), the CC50 at 4 days is more than 30 µM.
